“And” between values parts separate entries of the source, which are not always exact repeats. Identical values can stand only once. Marks after values point to notes of the source that are not given here.
How the values were obtained:
expression of SrtA = assay: Western blot analysis of SrtA expression; assay type: cell-based, S. aureus; details: orientin 0, 25, 50, 100 or 200 µM
Method: An equal amount of protein extract was separated using SDS-PAGE, followed by transfer to the polyvinylidene difluoride (PVDF) membrane (GE Healthcare, UK). The membrane was incubated in 5% BSA overnight at 4°C. After washing with TBST (TBS + 1‰ Tween 20), the membrane was incubated with rabbit anti-SrtA polyclonal antibody (1:3000) at room temperature. After incubation for 2 h, the membrane was washed thrice and incubated with HRP-conjugated goat anti-rabbit IgG (diluted 1:10,000 in TBST) for 2 h. After washing thrice, the membrane was incubated with Super ECL Plus (US EVERBRIGHT, Suzhou, China) and visualized in an ECL detection system (GE Healthcare, UK). The cytoplasmic protein ClpP was treated in the same way as an internal control. Band quantification was performed using the software ImageQuant TL.

SrtA [1] = molecular target: T1, SrtA (Staphylococcus aureus, UniProt Q2FV99); assay: FRET assay of SrtA inhibition (cleavage of Abz-LPATG-Dap(Dnp)-NH2); assay type: biochemical, S. aureus USA300
T1 construct: 6xHis (N); made in house; host or cells: E. coli BL21(DE3), pET28a
Method: Fluorescence resonance energy transfer (FRET) was detected the activity of orientin against SrtA, as previously described. The reaction mixture (300 µL) consisted of the reaction buffer (50 mM Tris-HCl, 5 mM CaCl2, 150 mM NaCl, pH 7.5), 4 µM purified SrtA, and various concentrations of orientin (0–200 µM). The sample was incubated at 37°C for 1 h, followed by the addition of substrate peptide (10 μM). After incubation for another hour at 37°C, the fluorescence intensity value was detected at the excitation and emission wavelengths of 350 nm and 495 nm, respectively.

WT-SrtA = molecular target: T2, WT-SrtA (Staphylococcus aureus, UniProt Q2FV99); assay: Fluorescence quenching assay, WT-SrtA; assay type: binding, S. aureus USA300
T2 construct: 6xHis (N); made in house; host or cells: E. coli BL21(DE3), pET28a
Method: (§1) The sequence of srtA from S. aureus USA300 was retrieved from the GenBank database. The srtA gene lacking the transmembrane domain (N1–59) was amplified using PCR. The PCR product was then digested and cloned in the BamHI/XhoI restriction sites of the pET28a vector, yielding pET28a-srtA. The site-directed mutagenesis of T93A-SrtA, E105A-SrtA, and C184A-SrtA was conducted using pET28a-srtA using a Multi-Site Mutagenesis Kit (Transgen, Beijing, China). The expression vector was then transformed into the BL21(DE3) expression host, and the bacteria were cultured in BHI medium supplemented with kanamycin (50 µg/mL) at 37°C. In addition, isopropyl-β-D-thiogalactoside (1 mM) was used to induce recombinant SrtA for 4 h at 16°C. Whole-cell lysates of bacteria were prepared through ultrasonic crushing. Recombinant SrtAΔN59 or its mutants were purified using the 6 × His/Ni-NTA system refer to a previous study.
(§2) The binding constants (KA) of orientin to SrtA were determined using the fluorescence quenching assay. The spectra were recorded in the wavelength interval of 280–400 nm. The protocols used to perform the measurements have previously been described [[31–33]].

S. aureus USA300 [2] = assay: Growth curve assay; assay type: cell-based; details: 200 µM orientin, growth curve in BHI
Method: (§3) The broth microdilution method was performed to determine the MIC of orientin for S. aureus USA300 as previously described. Briefly, orientin was diluted two-fold serially in a 96-well plate at concentrations ranging from 2 to 1024 µg/mL, followed by inoculation with S. aureus USA300 (10^6 CFU/mL) and incubation at 37°C for 16 h. After incubation, the absorbance (OD) value at 600 nm was measured. For the growth curve experiment, the overnight bacterial culture was diluted in fresh BHI (1:100) with various concentrations of orientin (0–200 µM). S. aureus ΔsrtA was used as the control group. Each sample was cultured at 37°C, and the OD600 was measured at 1 h intervals.

SrtA [3] = molecular target: T1, SrtA; assay: Reversible inhibition assay of SrtA; assay type: biochemical, S. aureus USA300; details: SrtA incubated with 10-fold IC50 of orientin, then diluted
Method: The 10-fold IC50 concentration of orientin was incubated with 100 µL of SrtA (150 µM) for 1 h at 37°C, followed by the addition of 9.9 mL reaction buffer. Then, 190 µL of the mixture was added to each well, and substrate peptide (10 μL) was added until a final concentration of 10 μM was achieved. A multifunctional microplate reader was used to record the fluorescence intensity at 350 nm for excitation and 495 nm for emission.

S. aureus USA300 [4] = assay: Broth microdilution MIC; assay type: cell-based; details: Staphylococcus aureus, USA300, 16 h
Method: as §3

C184A = molecular target: T3, C184A (Staphylococcus aureus, UniProt Q2FV99, C184A); assay: Fluorescence quenching assay, SrtA mutant C184A; assay type: binding, S. aureus USA300
T3 construct: 6xHis (N); made in house; host or cells: E. coli BL21(DE3), pET28a
Method: as §1, §2

[5] = test system: Staphylococcal protein A (SpA) anchoring to the cell wall; assay: FITC-IgG binding to Staphylococcal protein A (SpA); assay type: cell-based, S. aureus; details: 200 µM orientin, compared to the WT group
Method: Overnight culture of S. aureus and S. aureus ΔsrtA was diluted 1:1000 in TSB medium, and different concentrations of orientin (0–200 µM) were added to the culture with shaking at 37°C until the logarithmic growth phase. The bacteria collected by centrifugation were washed thrice with PBS, after which the bacterial precipitate was resuspended with 50 µL of 1:200 diluted FITC-labeled rabbit IgG (Solarbio, Beijing, China). Then, the bacterial precipitate was incubated at ambient temperature for 30 min, and the harvested bacteria were rinsed thrice by PBS. Then, the bacteria were resuspended in 100 µL PBS and added to a black 96-well plate. The Multimode Microplate Reader (Tecan, Spark 20 M) was used to measure the fluorescence intensity at 490 nm for excitation and 520 nm for emission.

E105A = molecular target: T4, E105A (Staphylococcus aureus, UniProt Q2FV99, E105A); assay: Fluorescence quenching assay, SrtA mutant E105A; assay type: binding, S. aureus USA300
T4 construct: 6xHis (N); made in house; host or cells: E. coli BL21(DE3), pET28a
Method: as §1, §2

S. aureus USA300 [6] = assay: Adherence of S. aureus to immobilized fibrinogen; assay type: cell-based; details: WT S. aureus treated with 200 µM orientin
Method: The S. aureus USA300 was grown in BHI broth for 12 h and then diluted (1:100) in fresh BHI containing different concentrations of orientin, then continued to culture until an OD600 reached 0.5. The ∆srtA mutant was cultured under the same conditions as a positive control. Subsequently, the bacterial culture was added to a 96-well plate previously coated with bovine fibrinogen (20 µg/mL). Then, the sample was incubated for 2 h at 37°C, and 25% (v/v) formaldehyde was added to fix the adherent bacterial cells for 30 min after discarding the suspension. The formaldehyde was removed, and the plate was washed twice with PBS, following which, crystal violet was added to stain the cells for 20 min. The wells were gently washed with PBS and dried, and the OD value at 570 nm was measured.

S. aureus biofilm = assay: Crystal violet biofilm assay; assay type: cell-based; details: 200 µM orientin, compared to the WT group (untreated S. aureus)
Method: After overnight culturing, S. aureus was diluted using fresh BHI by 1:100, and different concentrations of orientin ranging from 0 to 200 μM were added with shaking at 37°C to OD600 of 0.6. The bacterial culture (5 µL) was then added to BHI broth containing 1% glucose to a final volume of 200 µL and continue cultured for 18 h. Then, the medium was discarded carefully and washed three times with PBS. Then, the biofilms were stained with a 0.1% (w/v) crystal violet solution for 20 min at ambient temperature conditions. The crystal violet solution was discarded, and the wells were washed thrice with sterile PBS. After drying the plates, 95% ethanol was added into each well, and the absorbance at 570 nm was measured.

S. aureus = assay: Pneumonia model experiment; assay type: in vivo, C57BL/6 J mice; details: mice
Method: The pneumonia model was induced as previously described in 7-week-old female C57BL/6 J mice. For survival experiments, a group of 10 mice was infected with 30 µL of S. aureus culture (2 × 10^8 CFUs) via the intranasal route. An hour after infection, the mice were intraperitoneally injected with orientin (100 mg/kg) at intervals of 12 h. Similarly, mice in the control group were injected with sterile PBS containing 0.5% DMSO. The mice were monitored every 12 h for 96 h after administration to calculate the survival rate. For estimation of the bacterial count in the lung tissue and histopathological analysis, the mice were infected with 30 µL (1 × 10^8 CFUs) of S. aureus cultures, and the infection was allowed to progress for 2 d. The mice were then sacrificed, and the lungs were collected, weighed, and homogenized. Then, appropriate dilutions were plated on BHI-agar plates until a single colony appeared and counted. The lung tissues of mice in each group were aseptically separated and fixed in 10% formalin. The lung tissue sections were observed under an optical microscope after conventional hematoxylin and eosin (H&E) staining.

[7] = test system: S. aureus internalization into A549 cells; assay: Invasion assay of S. aureus into A549 cells; assay type: cell-based; details: S. aureus treated with 100 µM orientin, vs untreated WT, P < 0.001
Method: The A549 cells were routinely sub-cultured at 37°C with 5% CO2. Cells in the logarithmic growth phase were seeded in a 24-well plate at a density of 2.5 × 10^5 per well and cultured for 20 h. S. aureus was mixed with orientin ranging from 0 to 100 µM and cultured at 37°C until an OD600 of 1.0 was reached. Then, the cell culture medium was discarded, and the cells were resuspended in DMEM medium. After that, a bacterial suspension containing 2 × 10^7 CFU/mL was added to each well. After incubation for 2 h, 300 µg/mL gentamicin was added to stop the invasion. Then, the cells were lysed after washing with sterile PBS and spread on BHI agar plates to calculate the number of colonies in each sample.

D170A = assay: Fluorescence quenching assay, SrtA mutant D170A; assay type: binding, S. aureus USA300

`O=c1cc(-c2ccc(O)c(O)c2)oc2c([C@@H]3O[C@H](CO)[C@@H](O)[C@H](O)[C@H]3O)c(O)cc(O)c12` [orientin] was tested, and the “effect on the expression of SrtA” value (expression of SrtA) was “not to affect the expression of SrtA”, the IC50 (SrtA [1]) was 50.4 ± 0.51 µM and the Kd (WT-SrtA) was 14 µM. The “effect on S. aureus growth” value (S. aureus USA300 [2]) was “little inhibitory effect”, the “reversibility of SrtA inhibition” value (SrtA [3]) was “reversible inhibitor” and the “activity of SrtA recovered (relative activity)” value (SrtA [3]; untreated SrtA = 100% activity) was 84.77 ± 1.28% and 84.77%. The MIC (S. aureus USA300 [4]) was greater than 512 µg/mL, the Kd (C184A) was 32.1 µM and the “relative activity (fluorescence of FITC-IgG bound to SpA)” value [5] was 37.32 ± 1.84%. The Kd (E105A) was 23.5 µM, the “adhesion of S. aureus to fibrinogen” value (S. aureus USA300 [6]) was 33.10 ± 1.41% and the biofilm biomass (S. aureus biofilm) was 31.90 ± 0.25%. For the same molecule, the “number of viable S. aureus in the lung tissue” value (S. aureus; 100 mg/kg orientin, 2 d after infection, vs untreated group, P < 0.001) was “significantly reduced”, the lung histopathology (S. aureus; 100 mg/kg orientin, H&E staining) was “inflammatory symptoms were significantly reduced” and the survival rate (S. aureus; lethal dose of S. aureus intranasal, 100 mg/kg orientin intraperitoneally at intervals of 12 h, within 72 h) was 60%. For the same molecule, the “ability of S. aureus to invade A549 cells” value [7] was “decreased significantly” and the KA (D170A) was 5.37* 1 × 10^4 l/mol.

— paper PMC8354611, “Orientin mediates protection against MRSA-induced pneumonia by inhibiting Sortase A” (Virulence, 2021)
